# Biological target: T1, CCK1 receptor (Rattus norvegicus, UniProt P30551)
# T1 construct: from tissue; host or cells: live male rats (in vivo; gastrointestinal tract)
# T1 sequence (P30551 1-444): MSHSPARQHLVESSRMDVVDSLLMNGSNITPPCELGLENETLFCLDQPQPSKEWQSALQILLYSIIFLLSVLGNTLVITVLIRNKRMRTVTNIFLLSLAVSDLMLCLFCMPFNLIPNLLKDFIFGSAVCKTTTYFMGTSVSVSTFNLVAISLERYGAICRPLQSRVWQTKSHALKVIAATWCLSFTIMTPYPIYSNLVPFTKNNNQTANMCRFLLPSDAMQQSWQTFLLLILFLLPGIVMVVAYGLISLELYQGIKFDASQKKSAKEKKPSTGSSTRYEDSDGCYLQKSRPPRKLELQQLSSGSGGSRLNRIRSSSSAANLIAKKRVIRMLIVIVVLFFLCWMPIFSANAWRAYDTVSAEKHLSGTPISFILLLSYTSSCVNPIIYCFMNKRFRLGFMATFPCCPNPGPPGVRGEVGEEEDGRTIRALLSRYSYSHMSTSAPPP
# Assay: Effects of lorglumide on noni-mediated inhibition of gastric emptying and intestinal transit
# Format: in vivo
# Conditions: lorglumide i.p. 15 min before test meal, rats given noni 1 ml/kg orally for 7 days
# Method: Male rats were divided into four groups and fasted for 24 h before use. Fifteen min before gastric intubation of a non-nutrient liquid meal, the animals were injected i.p. with the following compounds in 1 ml/kg: group 1 received dimethyl sulfoxide (DMSO), […], respectively. Groups 2-4 received 1 ml/kg of noni orally once daily for 7 days.
# Gastric emptying and intestinal transit were measured. Rats were intubated via a catheter with physiological saline (3 ml/kg) containing Na2^51CrO4 (0.5 μCi/ml) and 10% charcoal. The test meal was continuously stirred before intubation. Air (0.5 ml) was injected to flush the residual charcoal suspension in the catheter into rat stomach. Fifteen minutes later, the rats were decapitated and the stomach with the attached small intestine was immediately exposed by laparotomy. […] The small intestine was then divided into ten equal segments, and the radioactivity in the stomach and each segment of small intestine was measured in an automatic gamma counter. Gastric emptying was measured by determining the amount of labeled chromium contained in the small intestine fifteen minutes after intubation, expressed as a percentage of the amount given. Intestinal transit was assessed by calculating the geometric center of distribution of the radioactivity within the 10 segments by summation of the radioactivity in each segment multiplied by the segment number.
structure (smiles),measurement,setting,value
CCCCCN(CCCCC)C(=O)C(CCC(=O)O)NC(=O)c1ccc(Cl)c(Cl)c1 (centres unmarked) [lorglumide],Noni-induced inhibition of intestinal transit,,not altered
same,Noni-induced inhibition of gastric emptying,P<0.01,significantly prevented

# From US20080206367A1, “Morinda Citrifolia-based Formulations and Methods for Weight Management” (priority 2004, published 2008)
